Measured values: paper PMC5943518, “The protein kinase CK2 catalytic domain from Plasmodium falciparum: crystal structure, tyrosine kinase activity and inhibition” (Scientific Reports, 2018)

Tests used:
[1] = biological target: T1, PfCK2α (protein kinase CK2 catalytic α subunit), PfCK2αD179S (Plasmodium falciparum, UniProt Q8IIR9, D179S); assay: co-crystal structure at […] Å without Mg2+; ITC (KD […] without Mg2+, […] with […] Mg2+); format: binding
T1 construct: gene PF3D7_1108400; Ile12 to Ser335 (catalytic domain), hexa-histidine tag at C-terminus
T1 sequence (Q8IIR9 12-335 D179S): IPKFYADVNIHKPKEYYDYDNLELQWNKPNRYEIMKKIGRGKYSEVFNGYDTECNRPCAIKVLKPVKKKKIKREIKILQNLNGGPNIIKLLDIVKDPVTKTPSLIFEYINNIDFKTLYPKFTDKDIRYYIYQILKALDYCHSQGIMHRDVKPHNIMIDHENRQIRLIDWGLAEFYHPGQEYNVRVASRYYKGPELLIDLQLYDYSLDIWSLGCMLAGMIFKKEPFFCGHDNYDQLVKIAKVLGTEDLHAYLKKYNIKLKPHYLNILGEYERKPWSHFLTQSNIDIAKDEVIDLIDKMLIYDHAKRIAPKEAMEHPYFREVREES

[2] = biological target: T2, PfCK2 (PfCK2α, protein kinase CK2 catalytic subunit) (Plasmodium falciparum, UniProt Q8IIR9); assay: radiometric peptide kinase assay with γ[…]-ATP ([…] ATP); format: biochemical
T2 construct: gene PF3D7_1108400; Ile12 to Ser335 of PfCK2α

Compound	Kd [1] [µM]	IC50 [2] [µM]
Nc1ncnc2c1ncn2[C@@H]1O[C@H](COP(=O)(O)OP(=O)(O)OP(=O)(O)O)[C@@H](O)[C@H]1O [ATP]	22.3	–
O=C(O)c1ccc2c(c1)nc(Nc1cccc(Cl)c1)c1ccncc12 [CX4945]	–	0.0132
